Consider 1 molecule from ChEMBL document CHEMBL1124082, “Synthesis, intramolecular hydrogen bonding, and biochemical studies of clitocine, a naturally occurring exocyclic amino nucleoside” (J Med Chem, 1988).

Experiment [1] has as its target T1, Adenosine kinase (Homo sapiens, UniProt P55263). Put plainly: Binding affinity towards adenosine kinase.
The target of experiment [2] is T1, Adenosine kinase. Description: Inhibition of adenosine kinase from undialyzed W1-L2 lysate (0-50 uM).
In the next experiment the test system is L1210. Put plainly: In vitro inhibition of L1210 cells. The class given is functional. As to conditions: Mus musculus, read-out: ID50 (the source's name).
Experiment [3] is described as follows: Inhibition of growth of human B lymphoblast derived W1-L2 cells. It counts as functional. As to conditions: WIL2, read-out: ID50 (the source's name).

Structures are written as SMILES.

T1 sequence (P55263 whole entry): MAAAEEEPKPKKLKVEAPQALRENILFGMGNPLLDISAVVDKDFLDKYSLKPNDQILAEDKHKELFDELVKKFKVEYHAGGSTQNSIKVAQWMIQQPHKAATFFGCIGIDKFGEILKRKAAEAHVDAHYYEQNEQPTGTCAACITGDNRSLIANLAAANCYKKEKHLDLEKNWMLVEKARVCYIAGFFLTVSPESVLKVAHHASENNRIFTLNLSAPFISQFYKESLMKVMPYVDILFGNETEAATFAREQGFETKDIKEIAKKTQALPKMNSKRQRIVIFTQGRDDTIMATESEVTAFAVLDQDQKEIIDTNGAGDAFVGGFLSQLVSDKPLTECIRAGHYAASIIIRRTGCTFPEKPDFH

On to `Nc1ncnc(N[C@@H]2O[C@H](CO)[C@@H](O)[C@H]2O)c1[N+](=O)[O-]`, for which the Ki at Adenosine kinase [1] came to 300 nM; on Adenosine kinase [2], 3000 nM. Further, the IC50 (in the experiment on L1210; in experiment [3]) was 30 nM in each case.
